IC50 data for twelve molecules are collected here from patent US9051310B2, “Nicotinamide derivative or salt thereof” (FUJIFILM Corporation, priority 2011, dated 2015).

The target of this assay is T1, glutathione S-transferase (GST)-linked full-length human Syk protein (Homo sapiens, UniProt P43405).
T1 construct: glutathione S-transferase (GST)-linked full-length human Syk protein; purchased Carna Biosciences; host or cells: Baculovirus expression system
Description: Syk enzyme assay. The class given is biochemical. As to conditions: 0.83 nM Syk, time-resolved fluorescence; read-out: IC50 of Syk-inhibitory activity. The essentials:
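Phosphotyrosine on a biotin-peptide substrate (0.5 μM) was read by time-resolved fluorescence at 615 and 665 nm with Eu-anti-pTyr antibody and APC-streptavidin after 1 h EDTA stop.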

On to `COc1ccc([C@@H](Nc2nc(Nc3ccc4c(c3)c(N(C)C)nn4C)c(C(N)=O)cc2F)[C@H](C)N)cc1` [Example 2-342, 6-(((1R,2S)-2-amino-1-(4-methoxyphenyl)propyl)amino)-2-((3-(dimethylamino)-1-methyl-1H-indazol-5-yl)amino)-5-fluoronicotinamide], for which the half-inhibitory concentration (IC50) – broadly, the concentration that gives 50% inhibition – lay within 10 to 50 nM. For `CCOc1ncc(Nc2nc(N[C@H](CC)[C@H](C)N)c(F)cc2C(N)=O)cc1-n1ccnn1` [Example 2-206, 6-(((2S,3R)-2-aminopentan-3-yl)amino)-2-((6-ethoxy-5-(1H-1,2,3-triazol-1-yl)pyridin-3-yl)amino)-5-fluoronicotinamide], the IC50 lay in the range of 10 to 50 nM. As to `CC[C@H](N)[C@@H](CC)Nc1nc(Nc2cc(F)c3c(c2)c(N(C)C)nn3C)c(C(N)=O)cc1F` [Example 2-195, 6-(((3R,4S)-4-aminohexan-3-yl)amino)-2-((3-(dimethylamino)-7-fluoro-1-methyl-1H-indazol-5-yl)amino)-5-fluoronicotinamide], the IC50 is 10 to 50 nM. For `Cc1ncc(Nc2nc(N[C@H](Cc3ccccc3)[C@H](C)N)c(F)cc2C(N)=O)cc1F` [Example 2-426, 6-(((2R,3S)-3-amino-1-phenylbutan-2-yl)amino)-5-fluoro-2-((5-fluoro-6-methylpyridin-3-yl)amino)nicotinamide], the IC50 lay within 10 to 50 nM. Consider `Cc1ncc(Nc2nc(N[C@@H]3CC[C@@H](O)C[C@@H]3N)c(F)cc2C(N)=O)cc1-n1nccn1` (racemic) [Example 2-531, Mixture of 6-((2-amino-4-hydroxycyclohexyl)amino)-5-fluoro-2-((6-methyl-5-(2H-1,2,3-triazol-2-yl)pyridin-3-yl)amino)nicotinamide (1R,2S,4R), (1S,2R,4S)], for which the IC50 lay within 10 to 50 nM. For `CCCC[C@@H](Nc1nc(Nc2cc(F)c3c(c2)c(OC)nn3C)c(C(N)=O)cc1F)[C@H](C)N` [Example 2-155, 6-(((2S,3R)-2-aminoheptan-3-yl)amino)-5-fluoro-2-((7-fluoro-3-methoxy-1-methyl-1H-indazol-5-yl)amino)nicotinamide], the IC50 was less than 10 nM.

As for `CCn1ncc2cc(Nc3nc(N[C@H](C(C)C)[C@H](C)N)c(F)cc3C(N)=O)ccc21` [Example 2-105, 6-(((2S,3R)-2-amino-4-methylpentan-3-yl)amino)-2-((1-ethyl-1H-indazol-5-yl)amino)-5-fluoronicotinamide], the IC50 lay within 10 to 50 nM. Regarding `CCC[C@@H](Nc1nc(Nc2cnc(OCCOC)c(-n3nccn3)c2)c(C(N)=O)cc1F)[C@H](C)N` [Example 2-203, 6-(((2S,3R)-2-aminohexan-3-yl)amino)-5-fluoro-2-((6-(2-methoxyethoxy)-5-(2H-1,2,3-triazol-2-yl)pyridin-3-yl)amino)nicotinamide], the IC50 is 10 to 50 nM. With `COc1cc(Nc2nc(N[C@H](CCSC)[C@H](C)N)c(F)cc2C(N)=O)cc(OC)c1` [Example 2-345, 6-(((3R,4S)-4-amino-1-(methylthio)pentan-3-yl)amino)-2-((3,5-dimethoxyphenyl)amino)-5-fluoronicotinamide], the IC50 fell in the range of 10 to 50 nM. As to `CC(C)C[C@@H](Nc1nc(Nc2ccc3c(c2)c(N(C)C)nn3C)c(C(N)=O)cc1F)[C@H](C)N` [Example 2-3, 6-(((2S,3R)-2-amino-5-methylhexan-3-yl)amino)-2-((3-(dimethylamino)-1-methyl-1H-indazol-5-yl)amino)-5-fluoronicotinamide], the IC50 is less than 10 nM. `CCc1cccc(Nc2nc(N[C@@H]3CCCC[C@@H]3N)c(F)cc2C(N)=O)c1` [Example 2-450, 6-(((1R,2S)-2-aminocyclohexyl)amino)-2-((3-ethylphenyl)amino)-5-fluoronicotinamide]: the IC50 was less than 10 nM.

Regarding `COCCn1ncc2c(Nc3nc(N[C@H](C4CCC4)[C@H](C)N)c(F)cc3C(N)=O)cncc21` [Example 2-391, 6-(((1R,2S)-2-amino-1-cyclobutylpropyl)amino)-5-fluoro-2-((1-(2-methoxyethyl)-1H-pyrazolo[3,4-c]pyridin-4-yl)amino)nicotinamide], the half-maximal inhibitory concentration (IC50) was less than 10 nM.
